We go through three compounds from ChEMBL document CHEMBL3853268, “Thiosemicarbazone modification of 3-acetyl coumarin inhibits Aβ peptide aggregation and protect against Aβ-induced cytotoxicity” (Eur J Med Chem, 2016).

Active and inactive are the calls of the source. No cut-off for these calls is given here. A value given as a limit tells only on which side of the number the result lay.

Series [1] has as its target Amyloid-beta precursor protein (Homo sapiens) (UniProt P05067). In words: Inhibition of HFIP-induced amyloid beta (1 to 42 residues) (unknown origin) aggregation at 1:0.25 protein to compound ratio preincubated for 15 mins followed by HFIP addition measured after 40 mins by ThT fluorescence assay relative to control.
Series [2] shares this target. Description: Inhibition of HFIP-induced amyloid beta (1 to 42 residues) (unknown origin) aggregation at 1:0.5 protein to compound ratio preincubated for 15 mins followed by HFIP addition measured after 40 mins by ThT fluorescence assay.
Series [3] has the same target. In words: Inhibition of HFIP-induced amyloid beta (1 to 42 residues) (unknown origin) aggregation at 1:1 protein to compound ratio preincubated for 15 mins followed by HFIP addition measured after 40 mins by silver staining-based native PAGE assay.
Series [4] is described as follows: Neuroprotective activity against amyloid beta (1 to 42 residues)-induced toxicity in human SH-SY5Y cells assessed as cell viability at 5 to 20 uM after 3 days by MTT assay (reference value: 28%). It is filed as functional.
In series [5] the target is Amyloid-beta precursor protein (Homo sapiens) (UniProt P05067). Description: Inhibition of HFIP-induced amyloid beta (1 to 42 residues) (unknown origin) aggregation at 1:1 protein to compound ratio preincubated for 15 mins followed by HFIP addition measured after 40 mins by ANS extrinsic fluorescence assay relative to control.
Chain of Amyloid-beta precursor protein (Homo sapiens) (P05067 whole entry, the tested form may be a part): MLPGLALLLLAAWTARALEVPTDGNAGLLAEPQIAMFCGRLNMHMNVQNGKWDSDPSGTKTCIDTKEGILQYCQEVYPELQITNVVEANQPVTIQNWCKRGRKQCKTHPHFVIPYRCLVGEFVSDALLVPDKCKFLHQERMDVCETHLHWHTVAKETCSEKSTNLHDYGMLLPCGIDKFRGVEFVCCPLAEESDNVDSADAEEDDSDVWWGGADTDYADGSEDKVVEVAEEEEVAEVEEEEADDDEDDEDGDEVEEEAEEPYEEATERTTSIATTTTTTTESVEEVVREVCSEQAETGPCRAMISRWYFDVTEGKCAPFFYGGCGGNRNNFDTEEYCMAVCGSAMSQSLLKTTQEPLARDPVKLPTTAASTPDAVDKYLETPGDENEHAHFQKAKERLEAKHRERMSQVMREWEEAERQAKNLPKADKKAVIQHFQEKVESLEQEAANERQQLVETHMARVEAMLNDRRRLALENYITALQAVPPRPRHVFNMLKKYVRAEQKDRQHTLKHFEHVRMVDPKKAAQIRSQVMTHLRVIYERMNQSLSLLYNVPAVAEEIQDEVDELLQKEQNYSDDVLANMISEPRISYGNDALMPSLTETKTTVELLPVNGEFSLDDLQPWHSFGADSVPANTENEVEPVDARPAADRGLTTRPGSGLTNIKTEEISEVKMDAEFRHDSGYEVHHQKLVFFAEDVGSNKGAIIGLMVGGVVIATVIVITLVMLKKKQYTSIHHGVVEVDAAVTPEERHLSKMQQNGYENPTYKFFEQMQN
Series [6] is described as follows: Cytotoxicity against human SH-SY5Y cells assessed as decrease in cell viability after 24 hrs by MTT assay. The series is classed as toxicity, cell-based. (Tetrazolium dyes change colour on reduction, which living cells bring about.)
Series [7] deals with Amyloid-beta precursor protein (Homo sapiens) (UniProt P05067). Description: Inhibition of HFIP-induced amyloid beta (1 to 42 residues) (unknown origin) aggregation at 1:1 protein to compound ratio preincubated for 15 mins followed by HFIP addition measured after 40 mins by turbidity assay relative to control.
The target is the same in series [8]. In words: Inhibition of HFIP-induced amyloid beta (1 to 42 residues) (unknown origin) aggregation at 1:1 protein to compound ratio preincubated for 15 mins followed by HFIP addition measured after 40 mins by ThT fluorescence assay relative to control.
The target is the same in series [9]. In words: Inhibition of HFIP-induced amyloid beta (1 to 42 residues) (unknown origin) aggregation assessed as decrease in levels of higher aggregates at 1:1 protein to compound ratio preincubated for 15 mins followed by HFIP addition measured after 40 mins by silver staining-based native PAGE assay.
For series [10] the target is unchanged. Description: Inhibition of HFIP-induced amyloid beta (1 to 42 residues) (unknown origin) aggregation at 1:0.75 protein to compound ratio preincubated for 15 mins followed by HFIP addition measured after 40 mins by ThT fluorescence assay.

As usually defined, the inhibition is the drop in the measured response relative to a control, in per cent. The term IC50 denotes the concentration at which inhibition is half-maximal. Consider `CC(=O)c1cc2ccccc2oc1=O` [3-ACETYLCOUMARIN], for which the inhibition in series [1] worked out at 40%; in series [5], 40%; in series [7], 59%; in series [8], 50%. For the same compound, the inhibition result in [2], in [3], in series [9] and in series [10] was “Active” in each case. Also, the Activity in series [4] was 77%. Further, the half-inhibitory concentration (IC50) at 24 h in series [6] (human, SH-SY5Y cells) stood at 75 µM.
As to `C/C(=N\NC(N)=S)c1cc2ccccc2oc1=O`, the inhibition stood at 53% in [1], 86% in series [5], 78% in series [7] and 80% in [8]. In addition, the inhibition entry in series [2], in [3], in [9] and in [10] was “Active” in each case. Also, the Activity in series [4] came out at 95%. In [6] (sh-sy5y), the IC50 is not above 185 µM.
Regarding `Oc1c(I)cc(Cl)c2cccnc12`, in series [3], the inhibition result was “Active”.
